The values that follow come from US9119856B1, “Method for treating cancer using a dihydropyrimidine derivative” (KING SAUD UNIVERSITY, priority 2015, dated 2015).

Entries after “also recorded” stand apart in the source; their conditions may differ.

The test system of series [1] is MDA-MB-468 (breast cancer xenograft). As to the kind of experiment: Antitumor activity in mice, MDA-MB-468 breast cancer xenograft. To be noted: 50 mg/Kg intraperitoneal daily for 14 days. It counts as in vivo, Nude mice. As to the method:
(§1) Nude mice (Jackson Laboratories, Bar Harbor, Me., USA) were injected with 4*106 cells of MDA-MB-468 and LOVO subcutaneously in the right flank, and tumor size was measured weekly using a caliper. When the tumor reached approximately 400 mm^3 […], the mice were divided into control treated groups, the treatment including administration of DHP-5 (50 mg/Kg) via intraperitoneal injection daily for 14 days. The general toxicity of the treatment was determined by measuring the total body weight of the treated and control mice. The breeding, care and sacrifice of the animals were in accordance with the protocols approved by the Animal Care and Use Committee of the King Faisal Specialist Hospital and Research Centre.
(§2) Tumor growth of MDA-MB-468 (breast cancer xenograft) and LOVO (colon cancer xenograft) was recorded in untreated mice groups and DHP-5 (50 mg/kg) treated mice groups.

The test system of series [2] is tumor derived cells of LOVO xenograft. As to the kind of experiment: Side population analysis of tumor derived cells of LOVO xenograft. It counts as in vivo, Nude mice. To be noted: DHP-5 50 mg/kg for 14 days, Verapamil 200 μM. As to the method: (§3) For DCV staining, cells were pelleted and suspended in DMEM cell culture medium at a concentration of 1*10^6 cells/ml. DCV (Invitrogen Molecular Probes®, Eugene, Oreg.) was added at a final staining concentration of 10 μM, as this concentration gave optimal separation between SP and non SP cells. PI stained was used to exclude dead cells. Functionally, to gate only side population cells, Verapamil 200 μM or FTC 10 μg/ml was used. All analyses were performed on a FACS LSRII (BD Biosciences). Debris and cell clusters were excluded during side-scatter and forward-scatter analyses.
A side population analysis of tumor derived cells of LOVO xenograft that were untreated (FIG. 4A), treated with side population inhibitor reference drug Verapamil 200 μM (FIG. 4B), and side population analysis of tumor cells derived from animals treated by DHP-5 50 mg/kg for 14 days.
Nude mice (Jackson Laboratories, Bar Harbor, Me., USA) were injected with 4*106 cells of MDA-MB-468 and LOVO subcutaneously in the right flank, and tumor size was measured weekly using a caliper. When the tumor reached approximately 400 mm^3 […], the mice were divided into control treated groups, the treatment including administration of DHP-5 (50 mg/Kg) via intraperitoneal injection daily for 14 days. The general toxicity of the treatment was determined by measuring the total body weight of the treated and control mice. […]

Series [3] deals with T1, ABCG2 (Homo sapiens, UniProt Q9UNQ0).
T1 construct: endogenous in cells; host or cells: MCF-7 cells
T1 sequence (Q9UNQ0 1-655): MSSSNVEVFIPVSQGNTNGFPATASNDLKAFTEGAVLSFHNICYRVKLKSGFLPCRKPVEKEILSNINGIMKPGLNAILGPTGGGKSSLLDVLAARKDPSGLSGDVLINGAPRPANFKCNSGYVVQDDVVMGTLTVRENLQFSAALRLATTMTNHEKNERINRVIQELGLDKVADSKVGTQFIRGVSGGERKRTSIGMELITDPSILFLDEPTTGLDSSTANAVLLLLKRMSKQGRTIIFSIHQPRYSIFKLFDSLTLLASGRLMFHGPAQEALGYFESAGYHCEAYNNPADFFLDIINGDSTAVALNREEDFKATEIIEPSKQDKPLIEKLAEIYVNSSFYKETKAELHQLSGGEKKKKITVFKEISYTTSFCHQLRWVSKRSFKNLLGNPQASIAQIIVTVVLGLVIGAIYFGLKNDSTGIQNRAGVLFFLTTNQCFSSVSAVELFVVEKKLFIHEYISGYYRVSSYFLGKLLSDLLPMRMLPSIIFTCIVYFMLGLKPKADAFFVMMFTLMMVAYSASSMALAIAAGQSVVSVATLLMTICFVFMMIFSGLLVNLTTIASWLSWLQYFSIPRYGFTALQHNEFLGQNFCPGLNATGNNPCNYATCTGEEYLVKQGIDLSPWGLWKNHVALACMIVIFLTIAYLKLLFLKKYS
In words: Mitoxantrone accumulation in MCF-7 cells. Type of series: cell-based.

Series [4] is described as follows: General toxicity by total body weight of treated mice. The settings on record: animal models of breast and colon cancer. It counts as in vivo. How it is done: as §1
A short description of series [5]: Apoptosis induction in vitro. It counts as cell-based.
The next series deals with MCF-7 cells. In words: Flow cytometric DNA cell cycle analysis. It counts as cell-based, human. The settings on record: DHP-5 treated vs untreated. How it is done: 2×10^6 cells were fixed in 1 ml ethanol (70%) for 60 min. at room temperature. Harvested cells were resuspended in 1 ml Na citrate (50 mM) containing 250 μg RNase A and incubated at 50° C. for 60 min. Next, cells were resuspended in the same buffer containing 4 μg propidium iodine (PI) and incubated for 30 min. before being analyzed by flow cytometry (Becton Dickinson, San Jose, Calif., USA). The percentage of cells in various cell cycle phases was determined by using Cell Quest Pro software (Becton Dickinson).
On the technique in general: Flow cytometry measures light scatter and fluorescence of single cells or particles in a stream.

In a further series the test system is lovo colon cancer cells. As to the kind of experiment: Side population inhibition on lovo colon cancer cells. It counts as cell-based. How it is done: The relationship of compound structure and compound activity of various Formula I compounds, i.e., 5-benzoyl-3,4-dihydropyrimidin-2(1H)-one/thione compounds, on inhibition of side population cancer stem cells was studied. The various 5-benzoyl-3,4-dihydropyrimidin-2(1H)-one/thione compounds and the corresponding inhibition activity are provided below in Table 1.
The newly synthesized compounds DHP (1-9) were evaluated for side population inhibition on lovo colon cancer cells (%) at 10 μM concentration. […] It was noted that most of the compounds which include a methoxy group at R1 were active. The methoxy group seems to help the molecule to align in protein pocket. Compounds with an oxygen atom at R2 were also active. It seems that the oxygen atom at position R2 also plays some important role in binding with protein pocket.
For DCV staining, cells were pelleted and suspended in DMEM cell culture medium at a concentration of 1*10^6 cells/ml. DCV (Invitrogen Molecular Probes®, Eugene, Oreg.) was added at a final staining concentration of 10 μM, as this concentration gave optimal separation between SP and non SP cells. PI stained was used to exclude dead cells. Functionally, to gate only side population cells, Verapamil 200 μM or FTC 10 μg/ml was used. All analyses were performed on a FACS LSRII (BD Biosciences). […]

In series [6] the test system is ABCG2. As to the kind of experiment: Immunofluorescence staining of ABCG2 in MCF-7 cells. It counts as cell-based, human.
Series [7] in a line: Cell proliferation in vitro. It counts as cell-based.
For series [8], the system named is LOVO (colon cancer xenograft). As to the kind of experiment: Antitumor activity in mice, LOVO colon cancer xenograft. Type of series: in vivo, Nude mice. To be noted: 50 mg/Kg intraperitoneal daily for 14 days. As to the method: as §1, §2
A further series relates to breast cancer cells. In words: Self-renewal ability of breast cancer cells. It counts as cell-based.
For series [9], the system named is MCF-7 breast cancer cells. As to the kind of experiment: Side population analysis of MCF-7 breast cancer cells (DyeCycle Violet staining). It counts as cell-based, human. The settings on record: DHP-5 50, 75 and 100 μM, Verapamil 200 μM. As to the method: as §3

What is called inhibition is the share of the control response that was lost under treatment. A low value points to little suppression. In the case of `CCOc1ccc(C2NC(=O)NC=C2C(=O)c2cc(OC)c(OC)c(OC)c2)cc1` (stereo not shown) [DHP-5, 4-(4-ethoxyphenyl)-5-(3,4,5-trimethoxybenzoyl)-3,4-dihydropyrimidin-2(1H)-one], the “tumor growth, MDA-MB-468 breast cancer xenograft” value in [1] is on record as “superior efficacy compared to reference drug Doxorubicin; also recorded: shrinking of tumor”. In addition, the “inhibitory effect on side population cancer stem cells of xenograft tumor cells versus Verapamil” value in series [2] is recorded as “more potent inhibitory effect of DHP-5 on side population cancer stem cells than reference drug Verapamil”. At ABCG2 [3], the “Mitoxantrone accumulation (selective ABCG2 substrate)” value is recorded as “increase in Mitoxantrone accumulation”. Besides, the general toxicity entry in series [4] is on record as “without any sign of general toxicity”. The apoptosis entry in series [5] is recorded as “induced apoptosis”. Further, in the series on MCF-7 cells, the “cell cycle phase distribution” value was “increased accumulation of treated cells in G2+M mitosis phase”. Moreover, the “side population inhibition, activity in words” value with lovo colon cancer cells (10 μM) is given as “moderately active”. This molecule showed an inhibition at 10 µM in the series on lovo colon cancer cells (Homo sapiens) of 58.8%. For the same molecule, the “expression of ABCG2” value with ABCG2 [6] is reported as “decreased the expression of ABCG2”. Moreover, in series [7], the cell proliferation entry is on record as “blocked cell proliferation”. Further, in series [8], the “tumor growth, LOVO colon cancer xenograft” value is listed as “superior efficacy compared to reference drug Doxorubicin; also recorded: shrinking of tumor”. In addition, the “self-renewal ability of breast cancer cells” value in the series on breast cancer cells is listed as “blocking self-renewal ability of breast cancer cells in a dose dependent manner”. In addition, the “inhibitory effect on side population cancer stem cells versus Verapamil” value in [9] is listed as “more potent inhibitor of side population cells than reference drug Verapamil; also recorded: more potent inhibitory effect of DHP-5 on side population cancer stem cells than reference drug Verapamil”.
